Reference: patent US4443436A, “C-20-Modified macrolide derivatives of the macrolide antibiotics tylosin, desmycosin, macrocin, and lactenocin” (Eli Lilly and Company, priority 1982, dated 1984)
In brackets after ≈: the same amount, converted by molar mass. Like-named read-outs stand apart in the source and are kept apart here.

How the values were obtained:
[1] = test system: Staphylococcus aureus X1.1; test: MIC, standard agar-dilution assay, Staphylococcus aureus X1.1; assay type: cell-based; conditions: Staphylococcus aureus, X1.1
[2] = test system: Staphylococcus aureus V41; test: MIC, standard agar-dilution assay, Staphylococcus aureus V41; assay type: cell-based
[3] = test system: Staphylococcus aureus X400; test: MIC, standard agar-dilution assay, Staphylococcus aureus X400; assay type: cell-based; conditions: Staphylococcus aureus, X400
[4] = test system: Staphylococcus aureus S13E; test: MIC, standard agar-dilution assay, Staphylococcus aureus S13E; assay type: cell-based; conditions: Staphylococcus aureus, S13E
[5] = test system: Staphylococcus epidermidis EPI1; test: MIC, standard agar-dilution assay, Staphylococcus epidermidis EPI1; assay type: cell-based
[6] = test system: Staphylococcus epidermidis EPI2; test: MIC, standard agar-dilution assay, Staphylococcus epidermidis EPI2; assay type: cell-based; conditions: Staphylococcus epidermidis, EPI2
[7] = test system: Streptococcus pneumoniae Park I; test: microbe, parasite or virus in culture; assay type: cell-based
[8] = test system: Streptococcus Group D X66; test: MIC, standard agar-dilution assay, Streptococcus Group D X66; assay type: cell-based; conditions: Streptococcus Group D X66; agar dilution; read-out: MIC
Streptococcus Group 9960 = test: MIC, standard agar-dilution assay, Streptococcus Group 9960; assay type: cell-based; conditions: GROUP9960; Streptococcus Group 9960; agar dilution; read-out: MIC
[9] = test system: Haemophilus influenzae R252; test: MIC, standard agar-dilution assay, Haemophilus influenzae R252; assay type: cell-based
Staphylococcus aureus = test: MIC, broth-dilution microtiter test, Staphylococcus aureus; assay type: cell-based
Source text: (§1) The MIC's in Table X were obtained using conventional broth-dilution microtiter tests.

Streptococcus bovis 80 = test: MIC, broth-dilution microtiter test, Streptococcus bovis 80; assay type: cell-based; conditions: Streptococcus equinus; Streptococcus bovis 80; broth-dilution microtiter; read-out: MIC
Source text: as §1

[10] = test system: Pasteurella multocida 17E; test: MIC, broth-dilution microtiter test, Pasteurella multocida 17E; assay type: cell-based; conditions: Pasteurella multocida 17E; bovine isolate; broth-dilution microtiter; read-out: MIC
Source text: as §1

[11] = test system: Pasteurella multocida 60A; test: MIC, broth-dilution microtiter test, Pasteurella multocida 60A; assay type: cell-based; conditions: Pasteurella multocida 60A; avian isolate; broth-dilution microtiter; read-out: MIC
Source text: as §1

[12] = test system: Pasteurella hemolytica 22C; test: MIC, broth-dilution microtiter test, Pasteurella hemolytica 22C; assay type: cell-based; conditions: Pasteurella hemolytica 22C; broth-dilution microtiter; read-out: MIC
Source text: as §1

Mycoplasma gallisepticum = test: MIC, broth-dilution microtiter test, Mycoplasma gallisepticum; assay type: cell-based; conditions: Mycoplasmoides gallisepticum
Source text: as §1

Mycoplasma synoviae = test: MIC, broth-dilution microtiter test, Mycoplasma synoviae; assay type: cell-based; conditions: Mycoplasmopsis synoviae
Source text: as §1

Mycoplasma hyorhinis = test: MIC, broth-dilution microtiter test, Mycoplasma hyorhinis; assay type: cell-based
Source text: as §1

[13] = test system: Streptococcus pyogenes C203; test: In vivo protection of mice experimentally infected with S. pyogenes C203; conditions: Streptococcus pyogenes, mice, doses given 1 and 4 hours post-infection
Description: The C-20 modified derivatives of this invention have shown in vivo antimicrobial activity against experimentally-induced infections in laboratory animals. When two doses of test compound were administered to mice experimentally infected with S. pyogenes C203, the activity observed was measured as an ED50 value [effective dose in mg/kg to protect 50% of the test animals: see Warren Wick, et al., J. Bacteriol. 81, 233-235 (1961)].

[14] = test system: Streptococcus pyogenes C203; test: MIC, standard agar-dilution assay, Streptococcus pyogenes C203; assay type: cell-based
[15] = test system: Haemophilus influenzae Holt; test: MIC, standard agar-dilution assay, Haemophilus influenzae Holt; assay type: cell-based
[16] = Staphylococcus epidermidis, EPI1
[17] = C203, sc, subcutaneous, read-out: ED50, Subcutaneous
[18] = C203, oral, read-out: ED50, Oral
[19] = Haemophilus influenzae Holt, ampicillin-sensitive strain, read-out: MIC
[20] = Haemophilus influenzae R252, ampicillin-resistant strain, read-out: MIC
[21] = Mycoplasma hyorhinis, broth-dilution microtiter, read-out: MIC

Row | SMILES | MIC [1] | MIC ([2]; Staphylococcus aureus, V41) | MIC [3] | MIC [4] | MIC [5, 16] | MIC [6] | MIC ([7]; Streptococcus pneumoniae) | MIC [8] | MIC (Streptococcus Group 9960) | MIC ([9]; Haemophilus influenzae, R252) | MIC (Staphylococcus aureus) | MIC (Streptococcus bovis 80) | MIC [10] | MIC [11] | MIC [12] | MIC (Mycoplasma gallisepticum) | MIC (Mycoplasma hyorhinis; Mycoplasma) | ED50 [13, 17] | ED50 [13, 18] | MIC ([14]; Streptococcus pyogenes, C203) | other results
1 | CCC1CC(C)C(=O)C=CC(C)=CC(COC2OC(C)C(O)C(O)C2OC)C(CC)OC(=O)CC(O)C(C)C1OC1OC(C)C(O)C(N(C)C)C1O (stereo not drawn) [Compound 60, 20-DH-DO-Lactenocin] | 0.25 µg/mL (≈ 0.336 µM) | 0.25 µg/mL (≈ 0.336 µM) | 0.5 µg/mL (≈ 0.672 µM) | 0.25 µg/mL (≈ 0.336 µM) | 0.25 µg/mL (≈ 0.336 µM) | 0.25 µg/mL (≈ 0.336 µM) | 0.5 µg/mL (≈ 0.672 µM) | 8 µg/mL (≈ 10.8 µM) | 8 µg/mL (≈ 10.8 µM) | 16 µg/mL (≈ 21.5 µM) | 0.78 µg/mL (≈ 1.05 µM) | 6.25 µg/mL (≈ 8.4 µM) | 25 µg/mL (≈ 33.6 µM) | 25 µg/mL (≈ 33.6 µM) | 25 µg/mL (≈ 33.6 µM) | 1.56 µg/mL (≈ 2.1 µM) | 50 µg/mL (≈ 67.2 µM) | 3.9 mg/kg | 46 mg/kg | – | MIC (Mycoplasma synoviae; Mycoplasma synoviae, broth-dilution microtiter, read-out: MIC): > 50 µg/mL
2 | CCC1OC(=O)CC(O)C(C)C(OC2OC(C)C(OC3CC(C)(O)C(O)C(C)O3)C(N(C)C)C2O)C(CCN=[N+]=[N-])CC(C)C(=O)C=CC(C)=CC1COC1OC(C)C(O)C(OC)C1OC (stereo not drawn) [Compound 2, 20-DH-DO-20-Azidotylosin] | 2 µg/mL (≈ 2.12 µM) | 1 µg/mL (≈ 1.06 µM) | 2 µg/mL (≈ 2.12 µM) | 1 µg/mL (≈ 1.06 µM) | 1 µg/mL (≈ 1.06 µM) | – | 32 µg/mL (≈ 33.9 µM) | 128 µg/mL (≈ 136 µM) | 128 µg/mL (≈ 136 µM) | – | 3.12 µg/mL (≈ 3.31 µM) | 50 µg/mL (≈ 53 µM) | > 50 µg/mL | > 50 µg/mL | > 50 µg/mL | 1.56 µg/mL (≈ 1.65 µM) | – | > 6.3 mg/kg | 18 mg/kg | 2 µg/mL (≈ 2.12 µM) | MIC [15, 19]: > 128 µg/mL; MIC [9, 20]: > 128 µg/mL; MIC (Mycoplasma synoviae): 12.5 µg/mL (≈ 13.3 µM); MIC (Mycoplasma hyorhinis; [21]): > 50 µg/mL
3 | CCC1OC(=O)CC(O)C(C)C(OC2OC(C)C(OC3CC(C)(O)C(O)C(C)O3)C(N(C)C)C2O)C(CCSc2nnnn2C)CC(C)C(=O)C=CC(C)=CC1COC1OC(C)C(O)C(OC)C1OC (stereo not drawn) [Compound 5, 20-DH-DO-20-[(1-N-Methyltetrazol-5-yl)thio]tylosin] | 0.5 µg/mL (≈ 0.492 µM) | – | 2 µg/mL (≈ 1.97 µM) | 2 µg/mL (≈ 1.97 µM) | – | – | 32 µg/mL (≈ 31.5 µM) | 128 µg/mL (≈ 126 µM) | 128 µg/mL (≈ 126 µM) | 128 µg/mL (≈ 126 µM) | 1.56 µg/mL (≈ 1.54 µM) | > 50 µg/mL | > 50 µg/mL | > 50 µg/mL | > 50 µg/mL | 1.56 µg/mL (≈ 1.54 µM) | – | > 6.3 mg/kg | 56 mg/kg | – | MIC ([2]; Staphylococcus aureus V41, penicillin-resistant strain, agar dilution, read-out: MIC): 1 µg/mL (≈ 0.984 µM); MIC ([5]; Staphylococcus epidermidis EPI1, agar dilution, read-out: MIC): 1 µg/mL (≈ 0.984 µM); MIC ([14]; Streptococcus pyogenes C203, agar dilution, read-out: MIC): 1 µg/mL (≈ 0.984 µM); MIC ([15]; Haemophilus influenzae): > 128 µg/mL; MIC (Mycoplasma synoviae): 3.12 µg/mL (≈ 3.07 µM); MIC (Mycoplasma hyorhinis; [21]): > 50 µg/mL
4 | CCC1OC(=O)CC(O)C(C)C(OC2OC(C)C(OC3CC(C)(O)C(O)C(C)O3)C(N(C)C)C2O)C(CCI)CC(C)C(=O)C=CC(C)=CC1COC1OC(C)C(O)C(O)C1OC (stereo not drawn) [Compound 52, 20-DH-DO-20-Iodomacrocin] | 2 µg/mL (≈ 1.97 µM) | 2 µg/mL (≈ 1.97 µM) | 8 µg/mL (≈ 7.89 µM) | 4 µg/mL (≈ 3.94 µM) | 2 µg/mL (≈ 1.97 µM) | 2 µg/mL (≈ 1.97 µM) | – | 128 µg/mL (≈ 126 µM) | 128 µg/mL (≈ 126 µM) | – | 12.5 µg/mL (≈ 12.3 µM) | 50 µg/mL (≈ 49.3 µM) | > 50 µg/mL | > 50 µg/mL | > 50 µg/mL | 3.12 µg/mL (≈ 3.08 µM) | 50 µg/mL (≈ 49.3 µM) | – | – | 4 µg/mL (≈ 3.94 µM) | MIC ([7]; Streptococcus pneumoniae Park I, agar dilution, read-out: MIC): 16 µg/mL (≈ 15.8 µM); MIC [15, 19]: > 128 µg/mL; MIC [9, 20]: > 128 µg/mL
